Here are results for one molecule from article PMC5218480 (PLoS ONE, 2017).

This experiment deals with MV-4-11 cells. Kind of experiment: Gene expression microarray analysis (Affymetrix PrimeView) and GSEA. The class given is cell-based, human. Details: RFU PODN (11730768_x_at) / Fold change /veh PODN (11730768_x_at) / RFU LINC00158 (11744669_a_at) / Fold change /veh LINC00158 (11744669_a_at) / RFU DUSP10 (11751237_a_at) / Fold change /veh DUSP10 (11751237_a_at) / RFU ID3 (11757404_x_at) / Fold change /veh ID3 (11757404_x_at) / RFU PLEKHG5 (11737974_s_at) / Fold change /veh PLEKHG5 (11737974_s_at) / RFU LRRC4B (11730491_at) / Fold change /veh LRRC4B (11730491_at) / RFU GIMAP4 (11747438_a_at) / Fold change /veh GIMAP4 (11747438_a_at) / RFU KRT8 (11758183_x_at) / Fold change /veh KRT8 (11758183_x_at) / RFU CNN1 (11734310_a_at) / Fold change /veh CNN1 (11734310_a_at) / RFU VPS37D (11726825_at) / Fold change /veh VPS37D (11726825_at) / RFU C10orf10 (11716522_x_at) / Fold change /veh C10orf10 (11716522_x_at) / RFU KIR2DL2 /// KIR2DL4 /// KIR2DL5A /// KIR2DL5B /// KIR2DS1 /// KIR2DS2 /// KIR2DS3 /// KIR2DS4 /// KIR3DL3 /// KIR3DL3 /// KIR3DS1 (11738374_at) / Fold change /veh KIR2DL2 /// KIR2DL4 /// KIR2DL5A /// KIR2DL5B /// KIR2DS1 /// KIR2DS2 /// KIR2DS3 /// KIR2DS4 /// KIR3DL3 /// KIR3DL3 /// KIR3DS1 (11738374_at) / RFU C1QL1 (11718748_at) / Fold change /veh C1QL1 (11718748_at) / RFU TMPRSS4 (11747572_a_at) / Fold change /veh TMPRSS4 (11747572_a_at) / RFU HAMP (11756126_x_at) / Fold change /veh HAMP (11756126_x_at) / RFU RNFT2 (11725882_a_at) / Fold change /veh RNFT2 (11725882_a_at) / RFU NR4A2 (11747474_a_at) / Fold change /veh NR4A2 (11747474_a_at) / RFU ABCC12 (11746883_a_at) / Fold change /veh ABCC12 (11746883_a_at) / RFU TMEM136 (11760407_x_at) / Fold change /veh TMEM136 (11760407_x_at) / RFU CLDN22 /// WWC2 (11732394_at) / Fold change /veh CLDN22 /// WWC2 (11732394_at) / RFU HLA-DPB1 (11760878_x_at) / Fold change /veh HLA-DPB1 (11760878_x_at) / RFU SPINT1 (11716480_a_at) / Fold change /veh SPINT1 (11716480_a_at) / RFU GAP43 (11754022_s_at) / Fold change /veh GAP43 (11754022_s_at) / RFU A4GNT (11735810_at) / Fold change /veh A4GNT (11735810_at) / RFU PRB3 (11715151_x_at) / Fold change /veh PRB3 (11715151_x_at) / RFU TUBB4B (11761932_at) / Fold change /veh TUBB4B (11761932_at) / RFU CAPN14 (11732068_a_at) / Fold change /veh CAPN14 (11732068_a_at) / RFU TMCC2 (11721928_a_at) / Fold change /veh TMCC2 (11721928_a_at) / RFU IRGQ (11745062_a_at) / Fold change /veh IRGQ (11745062_a_at) / RFU FAM174B (11720279_a_at) / Fold change /veh FAM174B (11720279_a_at) / RFU TMPRSS4 (11748680_a_at) / Fold change /veh TMPRSS4 (11748680_a_at) / RFU FAM212B (11763350_a_at) / Fold change /veh FAM212B (11763350_a_at) / RFU PLEKHG5 (11743358_a_at) / Fold change /veh PLEKHG5 (11743358_a_at) / RFU ZSCAN30 (11745921_a_at) / Fold change /veh ZSCAN30 (11745921_a_at) / RFU CMKLR1 (11741424_a_at) / Fold change /veh CMKLR1 (11741424_a_at) / RFU LOC101060620 /// MAPK8IP1 (11723275_at) / Fold change /veh LOC101060620 /// MAPK8IP1 (11723275_at) / RFU SPTSSB (11747773_x_at) / Fold change /veh SPTSSB (11747773_x_at) / RFU PRSS12 (11739890_at) / Fold change /veh PRSS12 (11739890_at) / RFU BIN1 (11741810_x_at) / Fold change /veh BIN1 (11741810_x_at) / RFU WNT11 (11732464_a_at) / Fold change /veh WNT11 (11732464_a_at) / RFU C10orf10 (11716521_a_at) / Fold change /veh C10orf10 (11716521_a_at) / RFU C5orf56 (11738089_at) / Fold change /veh C5orf56 (11738089_at) / RFU CYB561 (11721691_x_at) / Fold change /veh CYB561 (11721691_x_at) / RFU ANKRD19P (11752326_a_at) / Fold change /veh ANKRD19P (11752326_a_at) / RFU OR2T12 /// OR2T33 /// OR2T8 (11738714_s_at) / Fold change /veh OR2T12 /// OR2T33 /// OR2T8 (11738714_s_at) / RFU VCAN (11748164_a_at) / Fold change /veh VCAN (11748164_a_at) / RFU JSRP1 (11732532_at) / Fold change /veh JSRP1 (11732532_at) / RFU KRTAP10-11 (11738290_x_at) / Fold change /veh KRTAP10-11 (11738290_x_at) / RFU MYO3A (11730013_a_at) / Fold change /veh MYO3A (11730013_a_at) / RFU EBF3 (11725865_a_at) / Fold change /veh EBF3 (11725865_a_at) / RFU CAMK2N1 (11719241_x_at) / Fold change /veh CAMK2N1 (11719241_x_at) / RFU C5orf56 (11738088_a_at) / Fold change /veh C5orf56 (11738088_a_at) / RFU OLFML3 (11715873_a_at) / Fold change /veh OLFML3 (11715873_a_at) / RFU LOC100653217 /// NTM (11731650_a_at) / Fold change /veh LOC100653217 /// NTM (11731650_a_at) / RFU MAPK11 (11762145_a_at) / Fold change /veh MAPK11 (11762145_a_at) / RFU FIZ1 (11724087_x_at) / Fold change /veh FIZ1 (11724087_x_at) / RFU OASL (11726364_x_at) / Fold change /veh OASL (11726364_x_at) / RFU SOX15 (11748057_x_at) / Fold change /veh SOX15 (11748057_x_at) / RFU CD79A (11719716_a_at) / Fold change /veh CD79A (11719716_a_at) / RFU HIST1H1D (11736915_at) / Fold change /veh HIST1H1D (11736915_at) / RFU CASKIN2 (11723855_a_at) / Fold change /veh CASKIN2 (11723855_a_at) / RFU LOC730098 (11760151_x_at) / Fold change /veh LOC730098 (11760151_x_at) / RFU OR4N2 (11742367_at) / Fold change /veh OR4N2 (11742367_at) / RFU PRRT2 (11749266_a_at) / Fold change /veh PRRT2 (11749266_a_at) / RFU SNX32 (11753110_a_at) / Fold change /veh SNX32 (11753110_a_at) / RFU CDHR5 (11726645_a_at) / Fold change /veh CDHR5 (11726645_a_at) / RFU RCAN1 (11760418_a_at) / Fold change /veh RCAN1 (11760418_a_at) / RFU FAM167A (11723789_a_at) / Fold change /veh FAM167A (11723789_a_at) / RFU FAM26E (11764081_at) / Fold change /veh FAM26E (11764081_at) / RFU ISYNA1 (11749810_s_at) / Fold change /veh ISYNA1 (11749810_s_at) / RFU ACY1 (11761880_at) / Fold change /veh ACY1 (11761880_at) / RFU 11764098_at / Fold change /veh 11764098_at / RFU SAMD14 (11745864_x_at) / Fold change /veh SAMD14 (11745864_x_at) / RFU NPB (11741838_a_at) / Fold change /veh NPB (11741838_a_at) / RFU TMPRSS6 (11731388_a_at) / Fold change /veh TMPRSS6 (11731388_a_at) / RFU KRTAP10-2 (11738614_at) / Fold change /veh KRTAP10-2 (11738614_at) / RFU ARHGAP8 /// PRR5-ARHGAP8 (11727945_x_at) / Fold change /veh ARHGAP8 /// PRR5-ARHGAP8 (11727945_x_at) / RFU KRTAP5-7 /// NADSYN1 (11734609_at) / Fold change /veh KRTAP5-7 /// NADSYN1 (11734609_at) / RFU RASL12 (11751679_a_at) / Fold change /veh RASL12 (11751679_a_at) / RFU CDKN2B (11736163_a_at) / Fold change /veh CDKN2B (11736163_a_at) / RFU PRF1 (11729649_at) / Fold change /veh PRF1 (11729649_at) / RFU, ZNF638 /// ZNF638-IT1 / Fold change vs veh, ZNF638 /// ZNF638-IT1 / RFU, PANK3 / Fold change vs veh, PANK3 / RFU, SH3YL1 / Fold change vs veh, SH3YL1 / RFU, ZEB2 / Fold change vs veh, ZEB2 / RFU, NRIP1 / Fold change vs veh, NRIP1 / RFU, PTTG1IP / Fold change vs veh, PTTG1IP / RFU, CAPN2 / Fold change vs veh, CAPN2 / RFU, MED14 / Fold change vs veh, MED14 / RFU, SNORA58 / Fold change vs veh, SNORA58 / RFU, C1orf63 / Fold change vs veh, C1orf63 / RFU, LRRFIP1 / Fold change vs veh, LRRFIP1 / RFU, NDUFAF7 / Fold change vs veh, NDUFAF7 / RFU, SLC12A2 / Fold change vs veh, SLC12A2 / RFU, IBTK / Fold change vs veh, IBTK / RFU, ESF1 / Fold change vs veh, ESF1 / Fold change vs veh, TMEM50B / RFU, TAOK1 / Fold change vs veh, TAOK1 / RFU, ACBD3 / Fold change vs veh, ACBD3 / RFU, TMA16 / Fold change vs veh, TMA16 / RFU, RWDD3 / Fold change vs veh, RWDD3 / RFU, BCAT1 / Fold change vs veh, BCAT1 / RFU, EDEM3 / Fold change vs veh, EDEM3 / RFU, TMEM33 / Fold change vs veh, TMEM33 / RFU, WDR75 / Fold change vs veh, WDR75 / RFU, AHCTF1 / Fold change vs veh, AHCTF1 / RFU, TFRC / Fold change vs veh, TFRC / RFU, ZDHHC17 / Fold change vs veh, ZDHHC17 / RFU, NOM1 / Fold change vs veh, NOM1 / RFU, ARL8B / Fold change vs veh, ARL8B / RFU, ZBTB11 / Fold change vs veh, ZBTB11 / RFU, TAMM41 / Fold change vs veh, TAMM41 / RFU, KIAA1704 /// LOC100996395 / Fold change vs veh, KIAA1704 /// LOC100996395 / RFU, ING1 / Fold change vs veh, ING1 / RFU, TRMT61B / Fold change vs veh, TRMT61B / RFU, FUBP3 / Fold change vs veh, FUBP3 / RFU, TP53 / Fold change vs veh, TP53 / RFU, TNKS2 / Fold change vs veh, TNKS2 / RFU, ZFP14 / Fold change vs veh, ZFP14 / RFU, ACTR2 / Fold change vs veh, ACTR2 / RFU, PPP3R1 / Fold change vs veh, PPP3R1 / RFU, PIK3R1 / Fold change vs veh, PIK3R1 / RFU, HNRNPA1 / Fold change vs veh, HNRNPA1 / RFU, RNF170 / Fold change vs veh, RNF170 / RFU, ZNF28 / Fold change vs veh, ZNF28 / RFU, RNGTT / Fold change vs veh, RNGTT / RFU, OGT / Fold change vs veh, OGT / RFU, BRD1 / Fold change vs veh, BRD1 / RFU, MARS / Fold change vs veh, MARS / RFU, ZNF655 / Fold change vs veh, ZNF655 / RFU, FAHD1 / Fold change vs veh, FAHD1 / RFU, BDP1 / Fold change vs veh, BDP1 / RFU, LRRCC1 / Fold change vs veh, LRRCC1 / RFU, ARID1A / Fold change vs veh, ARID1A / RFU, ZNF146 / Fold change vs veh, ZNF146 / RFU, ZNF330 / Fold change vs veh, ZNF330 / RFU, GPN3 / Fold change vs veh, GPN3 / RFU, C9orf123 / Fold change vs veh, C9orf123 / RFU, N4BP2L2 / Fold change vs veh, N4BP2L2 / RFU, ARFIP1 / Fold change vs veh, ARFIP1 / RFU, FAM179B / Fold change vs veh, FAM179B / RFU, BCL10 / Fold change vs veh, BCL10 / RFU, UHRF1BP1L / Fold change vs veh, UHRF1BP1L / RFU, BET1 / Fold change vs veh, BET1 / RFU, CNOT2 / Fold change vs veh, CNOT2 / RFU, ZNF268 / Fold change vs veh, ZNF268 / Fold change vs veh, ZNF507 / RFU, DGCR2 / Fold change vs veh, DGCR2 / RFU, WDSUB1 / Fold change vs veh, WDSUB1 / Fold change vs veh, HSP90B1 /// MIR3652 / RFU, ADSS / Fold change vs veh, ADSS / RFU, GK / Fold change vs veh, GK / RFU, ZNF148 / Fold change vs veh, ZNF148 / RFU, TAF9 / Fold change vs veh, TAF9 / RFU, SLC1A5 / Fold change vs veh, SLC1A5 / RFU, SLMO2 / Fold change vs veh, SLMO2 / RFU, ABCC4 / Fold change vs veh, ABCC4 / RFU, LOC101060439 /// RAP1B / Fold change vs veh, LOC101060439 /// RAP1B / RFU, RFX7 / Fold change vs veh, RFX7 / RFU, GTPBP10 / Fold change vs veh, GTPBP10 / RFU, CNEP1R1 / Fold change vs veh, CNEP1R1 / RFU, BIVM-ERCC5 /// ERCC5 / Fold change vs veh, BIVM-ERCC5 /// ERCC5 / RFU, ILF3 / Fold change vs veh, ILF3 / RFU 11762660_at / Fold change /veh 11762660_at / RFU VCAN (11757783_s_at) / Fold change /veh VCAN (11757783_s_at) / RFU DDX43 (11728927_at) / Fold change /veh DDX43 (11728927_at) / RFU KRT8 (11758188_x_at) / Fold change /veh KRT8 (11758188_x_at) / RFU NKD1 (11759106_at) / Fold change /veh NKD1 (11759106_at) / RFU SRD5A1 (11742802_a_at) / Fold change /veh SRD5A1 (11742802_a_at) / RFU TPSAB1 /// TPSB2 (11721975_s_at) / Fold change /veh TPSAB1 /// TPSB2 (11721975_s_at) / RFU GSTM3 (11746129_a_at) / Fold change /veh GSTM3 (11746129_a_at) / RFU IL23R (11737362_x_at) / Fold change /veh IL23R (11737362_x_at) / RFU TMEM51 (11727254_a_at) / Fold change /veh TMEM51 (11727254_a_at) / RFU PIWIL2 (11732686_x_at) / Fold change /veh PIWIL2 (11732686_x_at) / RFU ORM1 (11744905_x_at) / Fold change /veh ORM1 (11744905_x_at) / RFU CCDC152 (11743942_at) / Fold change /veh CCDC152 (11743942_at) / RFU ECM1 (11717891_a_at) / Fold change /veh ECM1 (11717891_a_at) / RFU IL23R (11748794_a_at) / Fold change /veh IL23R (11748794_a_at) / RFU TNFAIP8L3 (11732012_x_at) / Fold change /veh TNFAIP8L3 (11732012_x_at) / RFU MBOAT4 (11741988_at) / Fold change /veh MBOAT4 (11741988_at) / RFU 11764193_at / Fold change /veh 11764193_at / RFU TMEM53 (11763286_at) / Fold change /veh TMEM53 (11763286_at) / RFU MAGEB2 (11727129_at) / Fold change /veh MAGEB2 (11727129_at) / RFU TMEM200A (11744735_a_at) / Fold change /veh TMEM200A (11744735_a_at) / RFU CCDC152 (11751479_a_at) / Fold change /veh CCDC152 (11751479_a_at) / RFU FAM211A (11726209_a_at) / Fold change /veh FAM211A (11726209_a_at) / RFU RGS16 (11746705_a_at) / Fold change /veh RGS16 (11746705_a_at) / RFU VCAN (11755009_s_at) / Fold change /veh VCAN (11755009_s_at) / RFU RHOB (11743442_s_at) / Fold change /veh RHOB (11743442_s_at) / RFU RGS16 (11720943_a_at) / Fold change /veh RGS16 (11720943_a_at) / RFU RGS16 (11720944_at) / Fold change /veh RGS16 (11720944_at) / RFU, VPS4B / Fold change vs veh, VPS4B / RFU, CREB1 / Fold change vs veh, CREB1 / RFU, DNAJC13 / Fold change vs veh, DNAJC13 / RFU, GNAQ / Fold change vs veh, GNAQ / RFU, CDK5R1 / Fold change vs veh, CDK5R1 / RFU, ZRANB3 / Fold change vs veh, ZRANB3 / RFU, CUL4A / Fold change vs veh, CUL4A / RFU, CCNY / Fold change vs veh, CCNY / RFU, UFL1 / Fold change vs veh, UFL1 / RFU, COG3 / Fold change vs veh, COG3 / RFU, DIAPH2 / Fold change vs veh, DIAPH2 / RFU, SKA2 / Fold change vs veh, SKA2 / RFU, AFF3 / Fold change vs veh, AFF3 / RFU, LMF1 / Fold change vs veh, LMF1 / RFU, IPO11 / Fold change vs veh, IPO11 / RFU, DFFB / Fold change vs veh, DFFB / RFU, FOXP1 / Fold change vs veh, FOXP1 / RFU, CARD8 / Fold change vs veh, CARD8 / RFU, STRN3 / Fold change vs veh, STRN3 / RFU, ADK / Fold change vs veh, ADK / RFU, RASSF2 / Fold change vs veh, RASSF2 / RFU, WIPF1 / Fold change vs veh, WIPF1 / RFU, LARP1B / Fold change vs veh, LARP1B / RFU, RASA1 / Fold change vs veh, RASA1 / RFU, RB1 / Fold change vs veh, RB1 / RFU, PPFIA1 / Fold change vs veh, PPFIA1 / RFU, MAT2A / Fold change vs veh, MAT2A / RFU, CCT5 / Fold change vs veh, CCT5 / RFU, WDR92 / Fold change vs veh, WDR92 / RFU, CUX1 / Fold change vs veh, CUX1 / RFU, TTC7A / Fold change vs veh, TTC7A / RFU, TMEM135 / Fold change vs veh, TMEM135 / RFU, DEPTOR / Fold change vs veh, DEPTOR / RFU, CPM / Fold change vs veh, CPM / RFU, DNAJB6 / Fold change vs veh, DNAJB6 / RFU, CACNA2D3 / Fold change vs veh, CACNA2D3 / RFU, DTX4 / Fold change vs veh, DTX4 / RFU, TFCP2 / Fold change vs veh, TFCP2 / RFU, GMCL1 /// GMCL1P1 / Fold change vs veh, GMCL1 /// GMCL1P1 / RFU, AEBP2 / Fold change vs veh, AEBP2 / RFU, SNHG1 /// SNORD22 /// SNORD25 /// SNORD26 /// SNORD27 /// SNORD28 /// SNORD29 /// SNORD31 / Fold change vs veh, SNHG1 /// SNORD22 /// SNORD25 /// SNORD26 /// SNORD27 /// SNORD28 /// SNORD29 /// SNORD31 / Fold change (Aza/veh), C12orf56 (ProbeSet 11735607_a_at) / Fold change (ACY-1035/veh), C12orf56 (ProbeSet 11735607_a_at) / Fold change (Aza/veh), FGFR1OP (ProbeSet 11751329_s_at) / Fold change (ACY-1035/veh), FGFR1OP (ProbeSet 11751329_s_at) / Fold change (Aza/veh), VPS36 (ProbeSet 11739960_a_at) / Fold change (ACY-1035/veh), VPS36 (ProbeSet 11739960_a_at) / RFU SYPL1 (11715823_x_at) / Fold change /veh SYPL1 (11715823_x_at) / RFU IGFBP7 (11715501_s_at) / Fold change /veh IGFBP7 (11715501_s_at) / RFU REEP3 (11722064_at) / Fold change /veh REEP3 (11722064_at) / RFU IGLL1 (11728026_x_at) / Fold change /veh IGLL1 (11728026_x_at): dose or concentration left out as unconfirmed. As to conditions: ProbeSet 11722302_a_at; LIST B.

In the case of `Nc1ccc(-c2cccs2)cc1NC(=O)c1ccc2c(c1)cc(C1CC1)n2CCN1CCOCC1` [ACY-1035], the “RFU, LRRFIP1” value is listed as 143.54 RFU.
